# Source: ChEMBL document CHEMBL1126981, “Resistance of the 2,2,2-trifluoroethoxy aryl moiety to the cytochrome P-450 metabolism in rat liver microsomes” (Bioorg Med Chem Lett, 1993)
# pIC50: −log10 of the molar value.
# Organism: Rattus norvegicus
# Assay: Inhibition of deethylase activity upon incubation with liver microsomes from phenobarbital induced rats
# Format: functional
row,pIC50,Structure (SMILES)
1,4.00,CC(=O)Nc1ccc(OCC(F)(F)F)cc1
2,3.64,O=c1ccc2ccc(OCC(F)(F)F)cc2o1
